The values below come from patent publication US12448358B2, “Inhibitors of protein arginine deiminase 1 and methods of preparation and use thereof” (University of Massachusetts, priority 2019, dated 2025).

Common to all, as to assay type: biochemical
Assay [1] has as its target T1, PAD3 (Homo sapiens, UniProt Q9ULW8).
T1 construct: made in house
T1 sequence (Q9ULW8 1-664): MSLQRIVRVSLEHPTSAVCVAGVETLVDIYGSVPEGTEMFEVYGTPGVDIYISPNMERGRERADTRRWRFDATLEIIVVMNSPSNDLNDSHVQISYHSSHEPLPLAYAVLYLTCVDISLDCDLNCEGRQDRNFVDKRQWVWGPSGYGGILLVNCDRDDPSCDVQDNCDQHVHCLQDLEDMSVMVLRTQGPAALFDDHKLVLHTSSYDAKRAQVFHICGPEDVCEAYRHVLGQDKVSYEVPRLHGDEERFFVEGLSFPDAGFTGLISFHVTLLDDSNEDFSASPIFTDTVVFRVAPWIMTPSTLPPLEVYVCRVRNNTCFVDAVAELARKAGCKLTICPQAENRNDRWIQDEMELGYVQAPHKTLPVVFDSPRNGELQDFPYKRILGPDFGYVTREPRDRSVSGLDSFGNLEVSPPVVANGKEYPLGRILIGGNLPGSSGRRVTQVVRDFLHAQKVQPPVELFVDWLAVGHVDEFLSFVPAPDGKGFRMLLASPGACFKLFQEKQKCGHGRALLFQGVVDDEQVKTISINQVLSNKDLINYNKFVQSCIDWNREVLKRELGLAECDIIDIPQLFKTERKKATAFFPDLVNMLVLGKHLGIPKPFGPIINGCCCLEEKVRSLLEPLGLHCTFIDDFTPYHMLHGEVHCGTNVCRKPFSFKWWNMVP
In words: Inactivation kinetics of PAD3 (COLDER citrulline assay). The following applies: for Fold PAD selectivity: bracketed value under kinact/KI; for kinact/KI: marks: * nonlinear fit of kobs versus [I], ‡ linear fit, † single kobs. The protocol:
(§1) Inactivation kinetics. […] After 15 min, reactions were quenched with liquid nitrogen and the production of citrulline was quantified using the COLDER assay. (Kearney, et al. Biochemistry 2005, 44, 10570-10582; Knipp, et al. Anal. Biochem. 2000, 286, 257-264.) The time-dependence of PAD inhibition was fit to the following equation 1, […] (1), using Grafit, version 5.0.11, where v is velocity, ν0 is initial velocity, k (or kobs is the pseudo-first-order rate constant of inactivation, and t is time. Upon reaching saturation, the concentration dependence of kobs was fit to equation 2, kobs=kinact[I]/(KI+[I]), (2), using Grafit, version 5.0.11, where kinact is the maximal rate of inactivation, KI is the concentration of inhibitor that affords half-maximal inactivation, and [I] is the concentration of inhibitor. When kobs with [I] varied linearly, kinact/KI was determined from the slope of the line. All the experiments were performed at least in duplicate.

The target of assay [2] is T2, PAD2 (Homo sapiens, UniProt Q9Y2J8).
T2 construct: made in house
In words: Inactivation kinetics of PAD2 (COLDER citrulline assay). Conditions: for Fold PAD selectivity: bracketed value under kinact/KI; for kinact/KI: marks: * nonlinear fit of kobs versus [I], ‡ linear fit, † single kobs. The protocol: as §1

In assay [3] the target is T3, PAD4 (Homo sapiens, UniProt Q9UM07).
T3 construct: made in house
The assay can be described thus: Inactivation kinetics of PAD4 (COLDER citrulline assay). Conditions: for Fold PAD selectivity: bracketed value under kinact/KI; for kinact/KI: marks: * nonlinear fit of kobs versus [I], ‡ linear fit, † single kobs. The protocol: as §1

The target in assay [4] is T4, PAD1 (Homo sapiens, UniProt Q9ULC6).
T4 construct: made in house
T4 sequence (Q9ULC6 1-663): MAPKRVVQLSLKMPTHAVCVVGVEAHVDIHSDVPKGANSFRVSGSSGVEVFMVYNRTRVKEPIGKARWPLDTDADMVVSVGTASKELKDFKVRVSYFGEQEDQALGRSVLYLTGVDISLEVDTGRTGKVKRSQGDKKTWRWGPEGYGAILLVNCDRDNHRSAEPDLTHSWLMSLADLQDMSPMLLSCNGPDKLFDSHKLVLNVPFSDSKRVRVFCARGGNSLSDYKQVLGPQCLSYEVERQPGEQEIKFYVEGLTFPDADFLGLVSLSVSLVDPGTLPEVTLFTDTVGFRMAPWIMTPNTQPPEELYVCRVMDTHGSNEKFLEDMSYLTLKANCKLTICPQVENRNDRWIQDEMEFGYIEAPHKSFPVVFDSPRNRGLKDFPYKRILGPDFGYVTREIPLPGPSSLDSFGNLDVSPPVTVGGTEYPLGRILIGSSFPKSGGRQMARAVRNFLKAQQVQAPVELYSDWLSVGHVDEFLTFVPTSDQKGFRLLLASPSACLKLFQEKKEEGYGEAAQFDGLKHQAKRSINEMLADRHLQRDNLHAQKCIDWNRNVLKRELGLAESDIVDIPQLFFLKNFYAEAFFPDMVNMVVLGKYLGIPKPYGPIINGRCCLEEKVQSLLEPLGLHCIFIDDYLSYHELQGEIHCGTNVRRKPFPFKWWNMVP
In words: Inactivation kinetics of PAD1 (COLDER citrulline assay). Conditions: for kinact/KI: marks: * nonlinear fit of kobs versus [I], ‡ linear fit, † single kobs. The protocol: as §1

The mark [5] stands for this setting: concentration of inhibitor that affords half-maximal inactivation.

T2 sequence (Q9Y2J8 whole entry): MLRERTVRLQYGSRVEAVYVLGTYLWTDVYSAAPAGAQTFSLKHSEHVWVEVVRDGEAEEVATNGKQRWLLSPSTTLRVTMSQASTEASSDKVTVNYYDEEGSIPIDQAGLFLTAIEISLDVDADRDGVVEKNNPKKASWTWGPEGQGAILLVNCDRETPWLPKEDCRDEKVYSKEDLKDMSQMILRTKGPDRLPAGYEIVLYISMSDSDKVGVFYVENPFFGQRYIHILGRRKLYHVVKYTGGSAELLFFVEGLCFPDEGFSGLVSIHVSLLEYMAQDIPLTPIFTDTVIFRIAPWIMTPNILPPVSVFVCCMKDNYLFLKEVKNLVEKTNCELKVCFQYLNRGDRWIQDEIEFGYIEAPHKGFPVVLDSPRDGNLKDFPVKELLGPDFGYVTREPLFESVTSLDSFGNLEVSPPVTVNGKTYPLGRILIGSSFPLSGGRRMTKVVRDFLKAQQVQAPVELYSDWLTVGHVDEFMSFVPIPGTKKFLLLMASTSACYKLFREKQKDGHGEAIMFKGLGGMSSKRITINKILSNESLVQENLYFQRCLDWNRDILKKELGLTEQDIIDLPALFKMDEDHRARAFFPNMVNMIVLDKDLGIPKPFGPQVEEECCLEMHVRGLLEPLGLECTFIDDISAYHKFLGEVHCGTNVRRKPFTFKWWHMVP
T3 sequence (Q9UM07 whole entry): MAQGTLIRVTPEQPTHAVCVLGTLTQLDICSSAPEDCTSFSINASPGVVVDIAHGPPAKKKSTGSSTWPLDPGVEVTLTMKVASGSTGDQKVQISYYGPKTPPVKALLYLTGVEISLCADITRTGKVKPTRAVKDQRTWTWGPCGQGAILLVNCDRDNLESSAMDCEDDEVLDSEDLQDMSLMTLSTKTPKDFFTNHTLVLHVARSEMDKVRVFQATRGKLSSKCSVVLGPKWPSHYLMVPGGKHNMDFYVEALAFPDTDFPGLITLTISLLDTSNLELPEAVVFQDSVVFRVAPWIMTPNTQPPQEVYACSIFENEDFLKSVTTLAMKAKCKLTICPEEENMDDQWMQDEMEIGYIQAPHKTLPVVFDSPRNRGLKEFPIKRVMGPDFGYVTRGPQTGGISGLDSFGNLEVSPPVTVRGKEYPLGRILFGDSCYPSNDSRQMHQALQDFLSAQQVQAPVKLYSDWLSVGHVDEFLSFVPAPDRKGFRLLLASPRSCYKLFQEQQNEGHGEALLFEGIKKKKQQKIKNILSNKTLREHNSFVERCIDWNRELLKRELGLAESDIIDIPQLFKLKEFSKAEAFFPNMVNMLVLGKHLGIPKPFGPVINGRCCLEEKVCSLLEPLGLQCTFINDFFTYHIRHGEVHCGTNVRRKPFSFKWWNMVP

Usually kinact stands for the maximal first-order rate at which the target is inactivated. With `C#Cc1c(I)cc(C(=O)N[C@@H](CCCNC(=N)CCl)c2nc3ccccc3[nH]2)c(O)c1I` [Compound 22], the kinact in assay [1] turned out to be 0.8 min⁻¹; in assay [2] it was 0.79 min⁻¹; in assay [3], 0.77 min⁻¹; in assay [4] (PAD1) it was 2.54 min⁻¹. For the same molecule, the results for the “Fold PAD selectivity” value in assay [1], in assay [2] and in assay [3] were “[1] fold”, “[4] fold” and “[3] fold”, respectively. Moreover, the Ki was determined as 97.6 µM in assay [1] (setting [5]); 25.3 µM in assay [2] (setting [5]); 30.8 µM in assay [3] (setting [5]); 35.2 µM in assay [4] (PAD1, concentration of inhibitor that affords half-maximal inactivation). For the same molecule, the kinact/KI in assay [1] was 8200 ± 30* M^−1min^−1; in assay [2] it was 31230 ± 1440* M^−1min^−1; in assay [3], 25000 ± 1370* M^−1min^−1; in assay [4] (PAD1), 72160 ± 10970* M^−1min^−1.

As for `N=C(CCl)NCCC[C@H](NC(=O)c1cccc(I)c1O)c1nc2ccccc2[nH]1` [Compound 18], the “Fold PAD selectivity” value in assay [1] was “[1] fold”; in assay [2] it was “[2] fold”; in assay [3], “[3] fold”; in assay [4] (PAD1 over the other PADs, bracketed value under kinact/KI), “[4] fold”. In addition, the kinact/KI is on record as 1170 ± 40^† M^−1min^−1 in assay [1], 2210 ± 270^† M^−1min^−1 in assay [2], 3160 ± 550^† M^−1min^−1 in assay [3] and 4100 ± 300^‡ M^−1min^−1 in assay [4] (PAD1).
